Literature values in patent US20230416754A1, “SINA MOLECULES, METHODS OF PRODUCTION AND USES THEREOF” (PHYZAT BIOPHARMACEUTICALS, LDA, priority 2020, published 2023).
Like-named read-outs stand apart in the source and are kept apart here.

Tested on: mice

With `CC(C)(C)NC[C@H](O)COc1nsnc1N1CCOCC1` [Timolol, timolol] as the compound, how does the IOP (reserpine-treated animals) read?
Its IOP is “did not significantly affect IOP”.

What about the IOP (saline control treated mice) of the same compound?
Its IOP is “significantly reduced IOP”.
